Results on seven molecules are retold here after PubChem BioAssay (NCI).

Test systems include SNB-75 CNS; CAKI-1 renal; LOX IMVI melanoma; A549 NSCLC; UACC-257 melanoma; U251 CNS; HOP-92 NSCLC; KM12 colon; RXF 393 renal; ACHN renal.
Assay in all cases: DTP human tumour cell line panel, 48 h

SMILES strings stand for the structures.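 Exposure lasted 48 hours, with cells grown in 96-well plates and compounds tested at five concentrations. Abbreviation: GI50, concentration required for 50% inhibition of growth. TGI marks complete inhibition of growth.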

Regarding `CSC(=S)Nc1cc(C)cc(C)n1`, the TGI is more than 10 µM in the test with SNB-75 CNS; more than 31.6 µM with CAKI-1 renal; more than 31.6 µM with LOX IMVI melanoma; more than 31.6 µM in the test with A549 NSCLC; more than 31.6 µM with UACC-257 melanoma; more than 31.6 µM in the test on U251 CNS. Besides, the TGI with HOP-92 NSCLC, in the test with KM12 colon, with RXF 393 renal and in the test on ACHN renal was more than 31.6 µM each time.

Regarding `O=C(NCCN1CCOCC1)OCc1nc2nc(Cl)nc(N3CCOCC3)c2[nH]1`, the GI50 in the test on SNB-75 CNS was 4.12 µM; in the test on CAKI-1 renal, 3.07 µM; with LOX IMVI melanoma it was 0.382 µM; with A549 NSCLC it was 9.33 µM; with UACC-257 melanoma it was more than 100 µM; with U251 CNS it was 4.09 µM. In addition, the GI50 in the test on HOP-92 NSCLC was 1.41 µM; in the test on KM12 colon, 1.96 µM; in the test with RXF 393 renal, 1.87 µM; in the test on ACHN renal, 0.901 µM. Besides, the TGI with SNB-75 CNS, in the test with CAKI-1 renal, in the test with LOX IMVI melanoma, in the test on A549 NSCLC, in the test on UACC-257 melanoma and with U251 CNS was more than 100 µM each time. Besides, the TGI is more than 100 µM with HOP-92 NSCLC, more than 100 µM in the test with KM12 colon, 6.78 µM with RXF 393 renal and more than 100 µM in the test on ACHN renal.

As for `O=c1cccccc1[O-].O=c1cccccc1[O-].O=c1cccccc1[O-].[Eu+3]`, the TGI was 79 µM in the test with SNB-75 CNS; more than 100 µM in the test with CAKI-1 renal; more than 100 µM in the test with LOX IMVI melanoma; more than 100 µM in the test on A549 NSCLC; 99.6 µM with UACC-257 melanoma; more than 100 µM in the test on U251 CNS. Besides, the TGI in the test with HOP-92 NSCLC was more than 100 µM; with KM12 colon, more than 100 µM; in the test on RXF 393 renal it was 73.9 µM; in the test with ACHN renal, more than 100 µM. The GI50 in the test with U251 CNS is 26.9 µM.

Take `CCCCNNC(=O)c1ccc(Br)cc1`: the GI50 with SNB-75 CNS is 1.83 µM; with CAKI-1 renal it was 2.88 µM; in the test on LOX IMVI melanoma, 3.29 µM; in the test with A549 NSCLC, 5.34 µM; in the test with UACC-257 melanoma, 0.639 µM; with U251 CNS it was 3.78 µM. The GI50 in the test with HOP-92 NSCLC was 1.46 µM; in the test on KM12 colon it was 7.26 µM; with RXF 393 renal, 4.53 µM; with ACHN renal, 2.67 µM. Besides, the TGI in the test with SNB-75 CNS was more than 50 µM; in the test on CAKI-1 renal, more than 27 µM; in the test with LOX IMVI melanoma it was 12.2 µM; with A549 NSCLC it was more than 50 µM; with UACC-257 melanoma, 7.34 µM; in the test on U251 CNS, 28.5 µM. Also, the concentration for total growth inhibition (TGI) was 11.4 µM in the test with HOP-92 NSCLC, more than 50 µM in the test on KM12 colon, 30.4 µM in the test with RXF 393 renal and more than 36.1 µM with ACHN renal.

Turning to `CCC[CH2][Sn]([CH2]CCC)([O]C(=O)c1cc(OC)c(OC)cc1OC)[O][Sn]([CH2]CCC)([CH2]CCC)[O]C(=O)c1cc(OC)c(OC)cc1OC`, the 50% growth inhibitory concentration (GI50) is 0.124 µM with SNB-75 CNS; 0.161 µM in the test on CAKI-1 renal; 0.257 µM in the test on LOX IMVI melanoma; 1.67 µM with A549 NSCLC; 0.276 µM in the test on UACC-257 melanoma; 1.17 µM with U251 CNS. In addition, the 50% growth inhibitory concentration (GI50) in the test on HOP-92 NSCLC is 0.206 µM; in the test with KM12 colon, 0.897 µM; in the test with RXF 393 renal, 0.151 µM; in the test with ACHN renal, 0.339 µM. In addition, the total growth inhibition concentration (TGI) came out at 0.7 µM with SNB-75 CNS; 0.686 µM in the test with CAKI-1 renal; 0.782 µM in the test with LOX IMVI melanoma; 3.5 µM in the test on A549 NSCLC; 0.883 µM with UACC-257 melanoma; 2.41 µM in the test on U251 CNS. Moreover, the TGI with HOP-92 NSCLC was determined as 0.564 µM; with KM12 colon, 2.3 µM; in the test on RXF 393 renal, 0.304 µM; in the test on ACHN renal, 1.17 µM.

Regarding `N#Cc1nc(-c2ccc(F)cc2)oc1S(=O)(=O)N1CCCCC1`, the GI50 in the test on SNB-75 CNS was 11.8 µM; in the test with CAKI-1 renal, 1.66 µM; in the test on LOX IMVI melanoma, 1.19 µM; in the test with A549 NSCLC, 6.9 µM; in the test with UACC-257 melanoma, 1.98 µM; with U251 CNS, 2.22 µM. For the same molecule, the GI50 with HOP-92 NSCLC is 1.76 µM; with KM12 colon, 5.23 µM; with RXF 393 renal it was 1.91 µM; in the test on ACHN renal, 1.76 µM. Further, the total growth inhibition concentration (TGI) in the test with SNB-75 CNS worked out at 25 µM; with CAKI-1 renal it was 3.03 µM; with LOX IMVI melanoma, 2.69 µM; in the test with A549 NSCLC, 27.1 µM; in the test on UACC-257 melanoma, 4.58 µM; in the test on U251 CNS, 5.31 µM. Further, the concentration for total growth inhibition (TGI) with HOP-92 NSCLC was 3.37 µM; with KM12 colon, 19.3 µM; with RXF 393 renal it was 3.38 µM; in the test on ACHN renal, 3.15 µM.

`CNC(=O)NCC1OC(n2cnc3c(NC(=O)Nc4ccccc4)ncnc32)C(O[Si](C)(C)C(C)(C)C)C1O[Si](C)(C)C(C)(C)C` (stereo unspecified): the GI50 in the test with SNB-75 CNS was 2.43 µM; with CAKI-1 renal, 2.7 µM; in the test with LOX IMVI melanoma, 1.82 µM; in the test with A549 NSCLC it was 2.9 µM; in the test on UACC-257 melanoma, 3.78 µM; in the test on U251 CNS, 2.96 µM. Moreover, the GI50 with HOP-92 NSCLC is 1.56 µM; in the test on KM12 colon it was 2.13 µM; in the test on RXF 393 renal, 2.14 µM; in the test with ACHN renal, 3.83 µM. Also, the TGI worked out at 34.1 µM with SNB-75 CNS; 7.93 µM in the test on CAKI-1 renal; 3.36 µM with LOX IMVI melanoma; 12.8 µM in the test on A549 NSCLC; 20.2 µM in the test with UACC-257 melanoma; 10.8 µM with U251 CNS. In addition, the TGI was 5.16 µM in the test with HOP-92 NSCLC, 4.14 µM with KM12 colon, 4.01 µM with RXF 393 renal and more than 100 µM in the test with ACHN renal.

What is called TGI is the concentration giving total growth inhibition. The GI50 is the concentration giving 50% growth inhibition.
